What was measured:
Assay type in all cases: cell-based
p-LRP6 (Ser1490) [1] = test: Phospho-LRP6 assay, time course, PA-1 teratocarcinoma cells
Method: FIGS. 3A-3B show the time-course of p-LRP6 (Ser 1490) inhibition (in vitro) induced by porcupine inhibitors. FIG. 3A is a Western blot analysis of PA-1 teratocarcinoma cells treated with 2 μM of Compound 5, for the time points indicated with antibodies as indicated on the left. As a control, cells treated with either growth medium alone or the vehicle (DMSO) for 48 h were included. FIG. 3B is a densitometric analysis of pLRP6 relative to total LRP6.
The present target efficacy biomarker assay measures a decrease in levels of p-LRP6 (i.e. phosphorylated LRP-6) (Ser1490) upon treatment with a porcupine inhibitor (Compound 5). […] The inhibitory effect remains up to 72 h (data not shown) in the presence of the compound and up to 12 h after the compound has been removed (data not shown).

HEK293-STF3A cells = test: STF3A assay (luciferase reporter); conditions: Homo sapiens, 24 h, 1 day of treatment
Method in brief: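 HEK293 cells stably carrying the STF luciferase reporter and expressing Wnt3A, seeded at 2×10^4 cells/well and grown overnight. Serially diluted compound (final 50 μM to 1.5 nM) applied for 1 day at 37 °C. Steady-Glo luciferase luminescence read after 10 min at room temperature.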

p-LRP6 (Ser1490) [2] = test: Phospho-LRP6 assay, dose titration, HPAF-II pancreatic adenocarcinoma cells
Method: FIGS. 4A-4B show pLRP6 in vitro inhibition-dose titration. FIG. 4A is a Western blot analysis of HPAF-II pancreatic adenocarcinoma cells treated with the indicated doses of Compound 5 for 6 h with antibodies as indicated on the left. The […] controls are a cell lysate of untreated STF3A cells and cells treated with vehicle only (DMSO). FIG. 4B is a densitometric analysis of pLRP6 relative to total LRP6.
While 2 μM led to 50-60% inhibition after 6 h of in vitro treatment, 3.3 nM of Compound 5 still inhibited p-LRP6 (Ser1490) by about 20% in this assay (FIG. 4).

Structure (SMILES)	IC50 (HEK293-STF3A cells) [µM]	further results
Cn1c(=O)c2c(ncn2CC(=O)Nc2ccc(-c3ccccc3)nn2)n(C)c1=O [Compound 5, 2-(1,3-dimethyl-2,6-dioxo-1,2,3,6-tetrahydro-7H-purin-7-yl)-N-(6-phenylpyridazin-3-yl)acetamide]	< 0.1	reduction in p-LRP6 (p-LRP6 (Ser1490) [1]; 2 μM, from 4 h onwards, in vitro (FIG. 3)): greater than 50%; duration of inhibitory effect after the compound has been removed (p-LRP6 (Ser1490) [1]; data not shown): up to 12 h; duration of inhibitory effect in the presence of the compound (p-LRP6 (Ser1490) [1]; data not shown): up to 72 h; inhibition at 0.0033 µM (p-LRP6 (Ser1490) [2]; Homo sapiens, HPAF-II, 3.3 nM, 6 h (FIG. 4)): ~20%; inhibition at 2 µM (p-LRP6 (Ser1490) [2]; Homo sapiens, HPAF-II, 2 μM, after 6 h of in vitro treatment (FIG. 4)): 50 to 60%; inhibition of p-LRP6 (p-LRP6 (Ser1490) [2]; concentrations lower than 3.3 nM, HPAF-II cells (data not shown)): did not inhibit
CC(C(=O)Nc1ccc(-c2ccccc2)nn1)n1cnc2c1c(=O)n(C)c(=O)n2C (stereo not drawn) [Compound 77, 2-(1,3-dimethyl-2,6-dioxo-2,3-dihydro-1H-purin-7(6H)-yl)-N-(6-phenylpyridazin-3-yl)propanamide]	< 0.1	–
CC(C(=O)Nc1ccc(-c2ccc(F)cc2)nn1)n1cnc2c1c(=O)n(C)c(=O)n2C (stereo not drawn) [Compound 78, 2-(1,3-dimethyl-2,6-dioxo-2,3-dihydro-1H-purin-7(6H)-yl)-N-(6-(4-fluorophenyl)pyridazin-3-yl)propanamide]	< 1	–
C[C@@H](C(=O)Nc1ccc(-c2ccccc2)nn1)n1cnc2c1c(=O)n(C)c(=O)n2C [Compound 79, (S)-2-(1,3-dimethyl-2,6-dioxo-2,3-dihydro-1H-purin-7(6H)-yl)-N-(6-phenylpyridazin-3-yl)propanamide]	< 0.1	–
C[C@H](C(=O)Nc1ccc(-c2ccccc2)nn1)n1cnc2c1c(=O)n(C)c(=O)n2C [Compound 80, (R)-2-(1,3-dimethyl-2,6-dioxo-2,3-dihydro-1H-purin-7(6H)-yl)-N-(6-phenylpyridazin-3-yl)propanamide]	> 10	–
CC(C(=O)Nc1ccc(-c2nccs2)cc1)n1cnc2c1c(=O)n(C)c(=O)n2C (stereo not drawn) [Compound 81, 2-(1,3-dimethyl-2,6-dioxo-2,3-dihydro-1H-purin-7(6H)-yl)-N-(4-(thiazol-2-yl)phenyl)propanamide]	< 0.1	–
C[C@H](C(=O)Nc1ccc(-c2nccs2)cn1)n1cnc2c1c(=O)n(C)c(=O)n2C [Compound 83, (R)-2-(1,3-dimethyl-2,6-dioxo-1,2,3,6-tetrahydro-7H-purin-7-yl)-N-(5-(thiazol-2-yl)pyridin-2-yl)propanamide]	< 10	–
C[C@@H](C(=O)Nc1ccc(-c2nccs2)cn1)n1cnc2c1c(=O)n(C)c(=O)n2C [Compound 84, (S)-2-(1,3-dimethyl-2,6-dioxo-1,2,3,6-tetrahydro-7H-purin-7-yl)-N-(5-(thiazol-2-yl)pyridin-2-yl)propanamide]	< 0.1	–
Cc1nc(-c2ccc(NC(=O)[C@@H](C)n3cnc4c3c(=O)n(C)c(=O)n4C)nc2)cs1 [Compound 85, (R)-2-(1,3-dimethyl-2,6-dioxo-2,3-dihydro-1H-purin-7(6H)-yl)-N-(5-(2-methylthiazol-4-yl)pyridin-2-yl)propanamide]	< 5	–
Cc1nc(-c2ccc(NC(=O)[C@H](C)n3cnc4c3c(=O)n(C)c(=O)n4C)nc2)cs1 [Compound 86, (S)-2-(1,3-dimethyl-2,6-dioxo-2,3-dihydro-1H-purin-7(6H)-yl)-N-(5-(2-methylthiazol-4-yl)pyridin-2-yl)propanamide]	< 0.1	–
Cn1c(=O)c2c(ncn2CCC(=O)Nc2ccc(-c3ccsc3)cc2)n(C)c1=O [Compound 87, 3-(1,3-dimethyl-2,6-dioxo-1,2,3,6-tetrahydro-7H-purin-7-yl)-N-(4-(thiophen-3-yl)phenyl)propanamide]	< 0.1	–
Cn1c(=O)c2c(ncn2CCCC(=O)Nc2ccc(-c3ccsc3)cc2)n(C)c1=O [Compound 88, 4-(1,3-dimethyl-2,6-dioxo-1,2,3,6-tetrahydro-7H-purin-7-yl)-N-(4-(thiophen-3-yl)phenyl)butanamide]	< 0.1	–
Cn1c(=O)c2c(ncn2CC(=O)Nc2ccc(-c3cccs3)cc2)n(C)c1=O [Compound 89, 2-(1,3-dimethyl-2,6-dioxo-1,2,3,6-tetrahydro-7H-purin-7-yl)-N-(4-(thiophen-2-yl)phenyl)acetamide]	< 0.1	–
Cn1c(=O)c2c(ncn2CCC(=O)Nc2ccc(-c3cccs3)cc2)n(C)c1=O [Compound 90, 3-(1,3-dimethyl-2,6-dioxo-1,2,3,6-tetrahydro-7H-purin-7-yl)-N-(4-(thiophen-2-yl)phenyl)propanamide]	< 0.1	–
Cn1c(=O)c2c(ncn2CCCC(=O)Nc2ccc(-c3cccs3)cc2)n(C)c1=O [Compound 91, 4-(1,3-dimethyl-2,6-dioxo-1,2,3,6-tetrahydro-7H-purin-7-yl)-N-(4-(thiophen-2-yl)phenyl)butanamide]	< 0.1	–
Cc1nc(-c2ccc(NC(=O)CCn3cnc4c3c(=O)n(C)c(=O)n4C)cc2)cs1 [Compound 92, 3-(1,3-dimethyl-2,6-dioxo-1,2,3,6-tetrahydro-7H-purin-7-yl)-N-(4-(2-methylthiazol-4-yl)phenyl)propanamide]	< 1	–
Cn1c(=O)c2c(ncn2CCC(=O)Nc2ccc(-c3nccs3)cc2)n(C)c1=O [Compound 93, 3-(1,3-dimethyl-2,6-dioxo-1,2,3,6-tetrahydro-7H-purin-7-yl)-N-(4-(thiazol-2-yl)phenyl)propanamide]	< 1	–
Cn1c(=O)c2c(ncn2CCCC(=O)Nc2ccc(-c3nccs3)cc2)n(C)c1=O [Compound 94, 4-(1,3-dimethyl-2,6-dioxo-1,2,3,6-tetrahydro-7H-purin-7-yl)-N-(4-(thiazol-2-yl)phenyl)butanamide]	< 1	–

From patent US12559495B2 (Agency for Science, Technology and Research, priority 2013, dated 2026)
